This note sets out measurements from patent US20250304643A1, “PEPTIDE DUAL AGONISTS OF GIPR AND GLP2R” (BAINAN BIOTECH APS, priority 2021, published 2025).

Assay [1] concerns the target T1, human GLP-2R (Homo sapiens, UniProt O95838).
T1 construct: host or cells: COS-7
T1 sequence (O95838 1-553): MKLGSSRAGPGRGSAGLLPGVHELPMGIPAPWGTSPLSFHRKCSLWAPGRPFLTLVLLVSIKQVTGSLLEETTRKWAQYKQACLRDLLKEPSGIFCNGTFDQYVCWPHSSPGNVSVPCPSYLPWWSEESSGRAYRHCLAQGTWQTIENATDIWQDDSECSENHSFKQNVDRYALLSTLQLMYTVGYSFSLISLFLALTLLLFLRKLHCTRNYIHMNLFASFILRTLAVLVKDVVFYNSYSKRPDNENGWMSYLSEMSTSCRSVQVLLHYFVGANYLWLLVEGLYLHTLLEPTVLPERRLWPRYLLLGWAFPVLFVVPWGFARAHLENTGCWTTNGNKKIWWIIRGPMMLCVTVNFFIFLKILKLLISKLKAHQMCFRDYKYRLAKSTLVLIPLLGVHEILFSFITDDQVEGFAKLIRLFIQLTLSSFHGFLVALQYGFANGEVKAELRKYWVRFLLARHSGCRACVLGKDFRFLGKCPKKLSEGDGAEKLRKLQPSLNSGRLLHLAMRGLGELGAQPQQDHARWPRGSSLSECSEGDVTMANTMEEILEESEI
Briefly: HitHunter cAMP assay in transiently transfected COS-7 cells, human GLP-2R.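 Further: cells kept 30 min at 37 °C in buffer with 1 mM IBMX, then given ligand for another 30 min at 37 °C before cAMP readout.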 Format: cell-based. As to conditions: Emax normalized to highest concentration of endogenous ligand; Table 2. A general note: Changes in cAMP serve as a functional read-out for many G protein-coupled receptors.

In assay [2] the target is T2, rat GLP-2R (Rattus norvegicus, UniProt Q9Z0W0).
T2 construct: expressed in transfected cells; host or cells: COS-7
T2 sequence (Q9Z0W0 1-550): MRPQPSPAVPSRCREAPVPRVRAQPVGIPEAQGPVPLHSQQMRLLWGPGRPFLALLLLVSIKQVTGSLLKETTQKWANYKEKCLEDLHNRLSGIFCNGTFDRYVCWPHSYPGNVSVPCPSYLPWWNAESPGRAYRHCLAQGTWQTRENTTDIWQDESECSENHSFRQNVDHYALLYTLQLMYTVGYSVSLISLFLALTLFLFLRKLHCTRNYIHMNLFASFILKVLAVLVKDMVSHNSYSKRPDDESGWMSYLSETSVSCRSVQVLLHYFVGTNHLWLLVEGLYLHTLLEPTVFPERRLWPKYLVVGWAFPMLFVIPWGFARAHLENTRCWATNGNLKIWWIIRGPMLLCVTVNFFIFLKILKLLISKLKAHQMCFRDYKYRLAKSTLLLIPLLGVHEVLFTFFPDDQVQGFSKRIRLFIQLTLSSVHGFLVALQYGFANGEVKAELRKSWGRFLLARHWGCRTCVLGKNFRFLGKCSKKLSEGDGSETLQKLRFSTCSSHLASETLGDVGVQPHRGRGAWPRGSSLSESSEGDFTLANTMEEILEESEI
Briefly: HitHunter cAMP assay in transiently transfected COS-7 cells, rat GLP-2R. Type of assay: cell-based. The note with it: Emax normalized to highest concentration of endogenous ligand. How it is done: (§1) The next day the assay was initiated by washing with HEPES buffered saline (HBS) and followed by an incubation step with assay buffer (HBS added 1 mM isobutyl-1-methylxanthine (IBMX)) for 30 min at 37° C. The ligands were then added and incubated for an additional 30 min at 37° C. After ligand incubation, the HitHunter® CAMP assay (Eurofins DiscoverX, Fremont, […] USA) was carried out according to the manufacturer's instructions. Luminescence was measured by PerkinElmer™ EnVision 2014 Multilabel Reader (PerkinElmer, Waltham, MA). The potencies (EC50 values) were determined by nonlinear regression using GraphPad Prism 9 (San Diego, California, USA). Sigmoid curves were fitted logistically. The efficacies (Emax values) were determined by normalization to the highest concentration applied of the endogenous ligand for each receptor.

Assay [3] deals with T3, human GIPR (Homo sapiens, UniProt P48546).
T3 sequence (P48546 22-466): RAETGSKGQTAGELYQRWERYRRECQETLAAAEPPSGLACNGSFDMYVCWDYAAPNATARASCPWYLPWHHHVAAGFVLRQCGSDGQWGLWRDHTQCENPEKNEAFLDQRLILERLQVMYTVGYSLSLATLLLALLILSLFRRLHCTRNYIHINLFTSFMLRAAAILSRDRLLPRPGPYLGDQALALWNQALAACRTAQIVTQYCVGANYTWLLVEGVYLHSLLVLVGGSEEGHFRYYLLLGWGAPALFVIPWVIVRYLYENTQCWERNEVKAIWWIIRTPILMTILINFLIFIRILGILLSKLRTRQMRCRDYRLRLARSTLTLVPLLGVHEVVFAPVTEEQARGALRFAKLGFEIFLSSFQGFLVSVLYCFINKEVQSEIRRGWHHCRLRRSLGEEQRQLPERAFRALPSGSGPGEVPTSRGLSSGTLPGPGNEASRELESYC
Format: cell-based. Also noted: host or cells: COS-7. As to conditions: Emax normalized to highest concentration of endogenous ligand; Table 2.

Assay [4] has as its target T4, rat GIPR (Rattus norvegicus, UniProt P43219).
T4 construct: expressed in transfected cells; host or cells: COS-7
T4 sequence (P43219 19-455): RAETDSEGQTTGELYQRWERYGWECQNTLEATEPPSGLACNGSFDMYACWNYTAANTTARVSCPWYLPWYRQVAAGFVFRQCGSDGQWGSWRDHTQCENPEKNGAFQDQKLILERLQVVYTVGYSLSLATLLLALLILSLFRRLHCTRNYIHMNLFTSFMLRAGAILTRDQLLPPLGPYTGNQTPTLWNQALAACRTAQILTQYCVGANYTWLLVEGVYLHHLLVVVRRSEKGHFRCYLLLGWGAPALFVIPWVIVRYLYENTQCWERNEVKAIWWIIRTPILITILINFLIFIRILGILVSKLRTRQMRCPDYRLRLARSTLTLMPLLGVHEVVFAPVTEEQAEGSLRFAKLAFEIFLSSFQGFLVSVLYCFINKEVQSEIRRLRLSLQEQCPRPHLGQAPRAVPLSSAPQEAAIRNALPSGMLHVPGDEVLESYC
Briefly: HitHunter cAMP assay in transiently transfected COS-7 cells, rat GIPR. Type of assay: cell-based. The note with it: Emax normalized to highest concentration of endogenous ligand. As to the method:
as §1

The test system of assay [5] is macaque GIPR. Briefly: HitHunter cAMP assay in transiently transfected COS-7 cells, macaque GIPR. As to conditions: for maGIPR Efficacy (%): Emax normalized to highest concentration of the endogenous ligand, COS-7 cells; for maGIPR pEC50: cAMP, transiently transfected COS-7 cells. Format: cell-based. How it is done: as §1
Assay [6] has as its target T5, human GLP-1R (Homo sapiens, UniProt P43220).
T5 construct: host or cells: COS-7
Briefly: HitHunter cAMP assay in transiently transfected COS-7 cells, human GLP-1R. Format: cell-based. As to conditions: Emax normalized to highest concentration of endogenous ligand; Table 3. As to the method: as §1

Assay [7] has as its target T3, human GIPR. Type of assay: cell-based. Also noted: host or cells: HEK293. As to conditions: beta-arrestin 2 recruitment; for AUC ± SD: AUC of sigmoid curves up to 100 nM. (Arrestin recruitment assays detect the binding of arrestin to an activated receptor.)
Protocol: HEK293 cells were cultured at 10% CO2 and 37° C. in DMEM-GlutaMAX™-I supplemented with 10% FBS, 180 units/mL penicillin and 45 g/mL streptomycin. These cells were transfected using PEI for the beta-arrestin recruitment assay as described in detail in (van der Velden et al., 2021).
HEK293 cells were transiently transfected with human GIPR, the donor Rluc8-Arrestin-3-Sp1 (beta-arrestin 2 recruitment), the acceptor mem-linker-citrine-SH3, and the GPCR kinase 2 (GRK2). Two days following transfection, the cells were washed with PBS and resuspended in PBS with 5 mM glucose. Then, 85 μL of the cell suspension solution was added to each well of a white 96-well plate followed by the addition of PBS with 5 μM coelenterazine-h. Following 10 min incubation, increasing concentrations of ligands were added and incubated for an additional 30 min. Luminescence was measured with the Berthold Technologies Mithras Multilabel Reader (Rluc8 at 485±40 nm and YFP at 530±25 nm). The potencies (EC50 values) were determined by nonlinear regression using GraphPad Prism 9 (San Diego, California, USA). Sigmoid curves were fitted logistically. The efficacies (Emax values) were determined by normalization to the highest concentration applied of the endogenous ligand (GIP) for the GIPR.
For assay [8], the target named is T6, human SNAP-GIPR (Homo sapiens, UniProt P48546).
T6 construct: host or cells: HEK293A
T6 sequence (P48546 22-466): T3 sequence (P48546 22-466)
Type of assay: cell-based. Set-up: AUC ± SD: unit not given beside the values.

Assay [9] has as its system bone turnover markers CTX (resorption) and P1NP (formation). Briefly: bone turnover markers CTX and P1NP in rats after SC injection. Format: in vivo, rat. As to the method:
Sprague Dawley female rats, age 10 w (Janvier Labs, France), n=4, were fasted from 06:00 until after final blood sample. A baseline blood sample was taken just before subcutaneous administration of compound at 10:00. Compounds were dissolved in 50 mM phosphate buffer, pH 7.5+0.1% Haemaccel. Dose: Compound no. 11 4248.5 μg/kg.
Blood samples were taken at 10:00, 14:00, 18:00 and 22:00. Plasma was obtained within 20 min after blood sampling and stored at −20C.
CTX and P1NP were measured using RatLaps (CTX-I) EIA and Rat/mouse P1NP EIA (Immunidiagnosticsystems, UK) according to protocols.
Data are presented using GraphPad Prism V9.3.0 as % of baseline as mean+/−SEM and analyzed by 2-way Anova with Sidaks multiple comparisons tests or by unpaired t-test.

Assay [10] concerns the target T3, human GIPR. As to conditions: 10 nM ligand for 90 min, then 125I-GIP(1-42) labelling; FIG. 3.
Protocol: COS-7 cells were cultured at 10% CO2 and 37° C. in Dulbecco's Modified Eagle Medium (DMEM) 1885 supplemented with 10% fetal bovine serum (FBS), 2 mM glutamine, 180 units/ml penicillin, and 45 g/ml streptomycin.
The following day, the media of the cells were changed to DMEM supplemented 2% FBS and preincubated either with or without 10 nM ligand for 90 min. […] After incubation, the cells were washed twice in 100 μl per well ice-cold binding buffer and lysed using 175 μl per well of 200 mM NaOH with 1% SDS for 30 min. The samples were analyzed by the Wizard Gamme Counter (PerkinElmer, Waltham, MA). Data was analyzed by comparing the counts measured from the ligand preincubated and non-preincubated cells.

T5 sequence (P43220 24-463): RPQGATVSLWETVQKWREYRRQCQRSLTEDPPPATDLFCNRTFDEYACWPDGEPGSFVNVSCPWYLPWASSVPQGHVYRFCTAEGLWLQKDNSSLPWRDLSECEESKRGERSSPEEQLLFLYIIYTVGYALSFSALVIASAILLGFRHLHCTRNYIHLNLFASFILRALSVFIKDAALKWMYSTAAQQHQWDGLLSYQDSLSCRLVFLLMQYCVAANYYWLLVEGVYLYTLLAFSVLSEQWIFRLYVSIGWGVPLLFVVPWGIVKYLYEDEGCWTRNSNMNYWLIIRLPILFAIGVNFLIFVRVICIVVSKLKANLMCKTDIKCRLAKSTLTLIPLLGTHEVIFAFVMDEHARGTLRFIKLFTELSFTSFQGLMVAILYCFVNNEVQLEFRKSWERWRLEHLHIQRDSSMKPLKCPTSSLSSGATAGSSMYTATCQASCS

On to “H-Aib-DGTFISDY-K(yglu-C10)-T-Aib-LDNLAARDFINWLIQTKITGNDWKHNITQ-OH [Compound no. 54]”, for which, in [1], the “Efficacy GLP-2R” value is on record as 87. Moreover, the “rGLP-2R Efficacy (%)” value in assay [2] was determined as 108.0%. In assay [3], the “Efficacy GIPR” value is given as 86. Also, in assay [4], the “rGIPR Efficacy (%)” value was found to be 110.3%. In assay [5], the “maGIPR Efficacy (%)” value stood at 71.8% and the “maGIPR pEC50” value stood at 7.7. The “Efficacy GLP-1R” value in assay [6] is 8.

For the substance “H-Aib-DGTFISDY-K(γGlu-C10)-TILDKLAARDFIEWLIATKITK-OH [Compound no. 31]”, in assay [1], the “Efficacy GLP-2R” value was determined as 90. The “AUC ± SD” value in assay [7] and in assay [8] was 0 in each case. The “rGLP-2R Efficacy (%)” value in assay [2] is listed as 86.3%. In addition, the “Efficacy GIPR” value in assay [3] was found to be 89. Besides, in [4], the “rGIPR Efficacy (%)” value came out at 85.0%. Besides, the “Efficacy GLP-1R” value in assay [6] stood at 6.

“H-Aib-DGTFISDY-K(γGlu-C16)-TILDNLAARDFINWLIQTKITK-OH [Compound no. 11]”: the “formation marker P1NP, % of baseline” value in assay [9] (female rats, SC 4248.5 μg/kg, time 14:00 and 18:00, FIG. 2B) was “increase”. Further, the “resorption marker CTX, % of baseline” value in [9] (female rats, SC 4248.5 μg/kg, time point 14:00, p-value=0.08, FIG. 2A) is on record as “reduced (ns) increase”. Besides, the “CTX AUC” value in assay [9] (rat, in vivo, sc) was “tendency towards a reduction”. Besides, the “AUC ± SD” value in assay [7] was determined as 61 ± 14; in assay [8], 19 ± 2. Further, the “Emax ± SD (%)” value in assay [7] (normalized to highest concentration of GIP, NA = no activity) turned out to be 41 ± 6%; in [8] (GIPR internalization, NA = no activity), 24 ± 6%. Also, the “rGLP-2R Efficacy (%)” value in [2] is on record as 104.0%. Besides, the “Efficacy GIPR” value in assay [3] amounted to 115. Further, in assay [4], the “rGIPR Efficacy (%)” value amounted to 107.0%. In addition, the “maGIPR Efficacy (%)” value in [5] stood at 92.5%. For the same substance, the “maGIPR pEC50” value in assay [5] was 9.0. Besides, the “Efficacy GLP-1R” value in assay [6] stood at 11.

On to “YAEGTFISDYSIAMDKIHQQDFVNWLLAQKGKKNDWKHNITQ [hGIP, reference compound]”, for which the entries for the “AUC ± SD” value in assay [7] and in assay [8] were 223 ± 16 and 204 ± 3, respectively. The “GIPR expression at the cell surface following ligand preincubation” value in assay [10] is recorded as “downregulation of the GIPR from the cell surface”.
